Reference: patent US4681893A, “Trans-6-[2-(3- or 4-carboxamido-substituted pyrrol-1-yl)alkyl]-4-hydroxypyran-2-one inhibitors of cholesterol synthesis” (Warner-Lambert Company, priority 1986, dated 1987)

Assays:
[1] = system: biosynthesis of cholesterol (sterol synthesis) in rat liver homogenate; experiment: CSI screen: inhibition of sterol synthesis (incorporation of cholesterol-14C-acetate into nonsaponifiable lipid) by rat liver homogenate; assay type: biochemical; settings: one-hour period, cholestyramine-fed rats, read-out: IC50 (Micromoles/liter) CSI
Description: The ability of compounds of the present invention to inhibit the biosynthesis of cholesterol was measured by two methods. A first method (designated CSI screen) utilized the procedure described by R. E. Dugan et al., Archiv. Biochem. Biophys., (1972), 152, 21-27. In this method, the level of HMG-CoA enzyme activity in standard laboratory rats is increased by feeding the rats a chow diet containing 5% cholestyramine for four days, after which the rats are sacrificed.
The rat livers are homogenized, and the incorporation of cholesterol-^14 C-acetate into nonsaponifiable lipid by the rat liver homogenate is measured. The micromolar concentration of compound required for 50% inhibition of sterol synthesis over a one-hour period is measured, and expressed as an IC50 value.

[2] = biological target: T1, HMG-CoA reductase (Rattus norvegicus, UniProt P51639); experiment: COR screen: conversion of 14C-HMG-CoA to 14C-mevalonate by a purified HMG-CoA reductase preparation; assay type: biochemical; settings: purified enzyme preparation of HMG-CoA reductase, read-out: IC50 (Micromoles/liter) COR
T1 sequence (P51639 1-887): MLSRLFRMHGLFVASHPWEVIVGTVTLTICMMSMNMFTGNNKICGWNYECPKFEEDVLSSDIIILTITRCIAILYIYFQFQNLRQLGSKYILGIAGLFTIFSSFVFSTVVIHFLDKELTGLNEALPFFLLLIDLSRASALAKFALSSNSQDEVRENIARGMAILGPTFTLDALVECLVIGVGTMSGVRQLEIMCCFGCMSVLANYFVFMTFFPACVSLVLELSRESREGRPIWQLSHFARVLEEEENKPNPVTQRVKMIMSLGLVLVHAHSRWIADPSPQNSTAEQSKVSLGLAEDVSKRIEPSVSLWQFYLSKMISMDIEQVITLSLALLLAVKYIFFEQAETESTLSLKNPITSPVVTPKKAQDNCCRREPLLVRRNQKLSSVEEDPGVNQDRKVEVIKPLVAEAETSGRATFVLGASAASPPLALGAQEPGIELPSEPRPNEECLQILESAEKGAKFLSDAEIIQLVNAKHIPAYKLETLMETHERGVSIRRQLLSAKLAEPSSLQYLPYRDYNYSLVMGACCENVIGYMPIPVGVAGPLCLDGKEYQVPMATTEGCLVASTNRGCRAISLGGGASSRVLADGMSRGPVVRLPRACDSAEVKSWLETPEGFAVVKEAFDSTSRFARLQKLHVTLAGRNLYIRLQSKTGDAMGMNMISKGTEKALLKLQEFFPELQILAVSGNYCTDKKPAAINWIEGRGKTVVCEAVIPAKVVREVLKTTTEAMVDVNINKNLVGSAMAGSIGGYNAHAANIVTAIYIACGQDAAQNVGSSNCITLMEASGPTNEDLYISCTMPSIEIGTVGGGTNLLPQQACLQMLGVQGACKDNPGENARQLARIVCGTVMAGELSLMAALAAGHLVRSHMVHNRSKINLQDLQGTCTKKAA
Description: A second method (designated COR screen) employed the procedure detailed by T. Kita, et al., J. Clin. Invest., (1980), 66: 1094-1100. In this method, the amount of ^14 C-HMG-CoA converted to ^14 C-mevalonate in the presence of a purified enzyme preparation of HMG-CoA reductase was measured. The micromolar concentration of compound required for 50% inhibition of cholesterol synthesis was measured and recorded as an IC50 value.

| Compound | IC50 [1] [nM] | IC50 [2] [nM] |
| --- | --- | --- |
| CC[C@H](C)C(=O)O[C@H]1CCC=C2C=C[C@H](C)[C@H](CC[C@@H]3C[C@@H](O)CC(=O)O3)[C@H]21 [Compactin, reference compound] | 26 |  |
| CC(C)c1c(C(=O)Nc2ccccc2)c(-c2ccccc2)c(-c2ccc(F)cc2)n1CC[C@H]1C[C@H](O)CC(=O)O1 (relative stereo) [Compound 1, trans-5-(4-fluorophenyl)-2-(1-methylethyl)-N,4-diphenyl-1-[2-(tetrahydro-4-hydroxy-6-oxo-2H-pyran-2-yl)ethyl]-1H-pyrrole-3-carboxamide] | 35 | 50 |
| O=C1C[C@@H](O)C[C@H](CCn2c(-c3ccc(F)cc3)c(C(=O)Nc3ccccc3)c(-c3ccccc3)c2C(F)(F)F)O1 (relative stereo) [Compound 2, trans-2-(4-fluorophenyl)-N,4-diphenyl-1-[2-(tetrahydro-4-hydroxy-6-oxo-2H-pyran-2-yl)ethyl]-5-(trifluoromethyl)-pyrrole-3-carboxamide] | 400 | 400 |
| O=C1C[C@@H](O)C[C@H](CCn2c(-c3ccc(F)cc3)c(-c3ccccc3)c(C(=O)Nc3ccccc3)c2C(F)(F)F)O1 (relative stereo) [Compound 3, trans-5-(4-fluorophenyl)-N,4-diphenyl-1-[2-(tetrahydro-4-hydroxy-6-oxo-2H-pyran-2-yl)ethyl]-2-(trifluoromethyl)-pyrrole-3-carboxamide] | 18 | 20 |
